Read-outs that look alike come from different tables or passages of the source.
Assays:
Type in all cases: cell-based
[1] = tested on: Ramos cells with BTK WT; assay: Phosphor-BTK(Y223) assay, suspended cells; conditions: phosphorylated BTK Y223, Ramos cells with BTK WT
Description: (§1) The purpose of this assay was to simply, quickly and directly detect the level of endogenous BTK phosphorylation in cells.
The steps for handling suspended cells were as follows: • 1) Ramos cells with BTK WT (2.5 k/well), BTK C481S (2.5 k/well), or BTK T474I (2.5 k/well) were plated in a 96-well plate, respectively. A compound of different concentration gradients was added using Tecan D300e, and the plate was incubated at 37 °C and 5% CO2 for 2 hours. • 2) 8.33 µL of 20 mM Na3VO4 was added to bring the final concentration to 5 mM, and the plate was incubated at 37 °C and 5% CO2 for 3 h. • 3) During the incubation, the following reagents were prepared: • 4x added lysis buffer: 24 vol 4x lysis buffer + 1 vol 25x blocking reagent. • p-BTK (Y223) cryptate-antibody and p-BTK (Y223) d2-antibody working solutions: 1 volume of each cryopreserved antibody (stored at - 20 °C) was added to 38 times the volume of assay buffer (stored at 4 °C), and mixed well. • 4) After the incubation was completed, 11.1 µL of 4x added lysis buffer was directly added. The plate was shaken at 800 rpm at room temperature for 30 min. • 5) The lysate was mixed well and 16 µL of it was transferred to a 384-well plate. 1 × added lysis buffer was used as a blank control. • 6) 4 µL of pre-mixed working solutions of the two antibodies (cryptate Ab:d2 Ab = 1:1) was added, and the plate was sealed. • 7) The plate was incubated at room temperature overnight. • 8) The plate was read at 665nm and 620nm using Biotek cytation3.0 microplate reader, and the ratio of 665/620nm of each well was calculated. Data analysis: IC50 was calculated using GraphPad Prism 7.0 software.
(§2) The IC50 (half-maximal phosphorylation inhibitory concentration) of the phosphorylated BTK Y223 of the compound was obtained using the following nonlinear fitting formula: Y = Bottom + (Top−Bottom)/(1+10^(∧)((LogIC50−X)*HillSlope)) [formula] • X: Log value of the compound concentration • Y: Inhibition rate (% inhibition) • Top: Maximum response • Bottom: Baseline response • HillSlope: Slope of the curve
(§3) The formula for calculating cell phosphorylation inhibition rate (inhibition rate %) was: Inhibition rate% = 1−(eachconcentrationwell-blankwell)/(positivecontrolwell−blankwell) [formula]

[2] = tested on: NIH/3T3 BTK WT cells; assay: Phosphor-BTK(Y223) assay, adherent cells; conditions: read-out: NIH/3T3 BTK-WT pBTK
Description: as §1
(§4) The steps for handling adherent cells were as follows: • 1) NIH/3T3 BTK WT cells (7.5 k/well) and NIH/3T3 BTK C481S cells (10 k/well) were plated in a 96-well plate, respectively, and cultured at 37 °C and 5% CO2 overnight. • 2) A 3-fold final concentration gradient dilution of a compound was prepared, and 50 µL of it was taken and added to 100 µL of cell culture. 0.5% DMSO was used as a positive control for cell growth. • 3) The plate was incubated at 37 °C and 5% CO2 for 0.5 h. • 4) Na3VO4 at a final concentration of 1mM was added, and the plate was incubated at 37 °C and 5% CO2 for 2 hours. • 5) During the incubation, the following reagents were prepared: • 1x added lysis buffer: 3 vol ddH2O + 1 vol 4x lysis buffer + 100x blocking reagent. • p-BTK (Y223) cryptate-antibody and p-BTK (Y223) d2-antibody working solutions: 1 volume of each cryopreserved antibody (stored at - 20 °C) was added to 19 times the volume of assay buffer (stored at 4 °C). • 6) After the incubation was completed, the medium was removed and 50 µL of 1x added lysis buffer was added. The plate was centrifuged at 500 rpm at room temperature for 30 min. • 7) The lysate was mixed well and 16 µL of it was transferred to a 384-well plate. 1 × added lysis buffer was used as a blank control. • 8) 4 µL of pre-mixed working solutions of the two antibodies (cryptate Ab:d2 Ab = 1:1) was added, and the plate was sealed. • 9) The plate was incubated at room temperature overnight. 10) The plate was read at 665nm and 620nm using Biotek cytation3.0 microplate reader, and the ratio of 665/620nm of each well was calculated.
as §2, §3

[3] = tested on: NIH/3T3 BTK C481S cells; assay: Phosphor-BTK(Y223) assay, adherent cells; conditions: read-out: NIH/3T3 BTK-C481S pBTK
Description: as §1, §4, §2, §3

[4] = Mus musculus, NIH3T3, phosphorylated BTK Y223, NIH/3T3 BTK WT cells
[5] = Mus musculus, NIH3T3, phosphorylated BTK Y223, NIH/3T3 BTK C481S cells
[6] = phosphorylated BTK Y223, NIH/3T3 BTK WT cells
[7] = phosphorylated BTK Y223, NIH/3T3 BTK C481S cells

| IC50 ([1]; Homo sapiens, Ramos) [nM] | IC50 [1] [nM] | Compound | IC50 [2, 4] [nM] | IC50 [3, 5] [nM] | IC50 [2, 6] [nM] | IC50 [3, 7] [nM] |
| --- | --- | --- | --- | --- | --- | --- |
| 5 to 10 | – | COc1ccc(F)cc1C(=O)NCc1ccc(-c2ncc(-c3ccccn3)c3[nH]nc(N)c23)cc1 [Example 15, N-(4-(3-amino-7-(pyridin-2-yl)-1H-pyrazolo[4,3-c]pyridin-4-yl)benzyl)-5-fluoro-2-methoxybenzamide] | ≤ 5 | 5 to 10 | – | – |
| 5 to 10 | – | COc1ccc(F)cc1C(=O)NCc1ccc(-c2ncc(-c3ncccn3)c3[nH]nc(N)c23)cc1 [Example 17, N-(4-(3-amino-7-(pyrimidin-2-yl)-1H-pyrazolo[4,3-c]pyridin-4-yl)benzyl)-5-fluoro-2-methoxybenzamide] | ≤ 5 | 5 to 10 | – | – |
| 10 to 50 | – | COc1ccc(F)cc1C(=O)NCc1ccc(-c2ncc(-c3cnccn3)c3[nH]nc(N)c23)cc1 [Example 18, N-(4-(3-amino-7-(pyrazin-2-yl)-1H-pyrazolo[4,3-c]pyridin-4-yl)benzyl)-5-fluoro-2-methoxybenzamide] | ≤ 5 | 10 to 50 | – | – |
| 5 to 10 | – | COc1ccc(F)cc1C(=O)NCc1ccc(-c2ncc(-c3ccncn3)c3[nH]nc(N)c23)cc1 [Example 19] | ≤ 5 | 5 to 10 | – | – |
| ≤ 5 | – | COc1ccc(F)cc1C(=O)NCc1ccc(-c2ncc(-c3ccc(F)cn3)c3[nH]nc(N)c23)cc1 [Example 21, N-(4-(3-amino-7-(5-fluoropyridin-2-yl)-1H-pyrazolo[4,3-c]pyridin-4-yl)benzyl)-5-fluoro-2-methoxybenzamide] | ≤ 5 | ≤ 5 | – | – |
| ≤ 5 | – | COc1ccc(F)cc1C(=O)NCc1ccc(-c2ncc(-c3ccn(C)n3)c3[nH]nc(N)c23)cc1 [Example 23, N-(4-(3-amino-7-(1-methyl-1H-pyrazol-3-yl)-1H-pyrazolo[4,3-c]pyridin-4-yl)benzyl)-5-fluoro-2-methoxybenzamide] | ≤ 5 | ≤ 5 | – | – |
| ≤ 5 | – | COc1ccc(F)cc1C(=O)NCc1ccc(-c2ncc(-c3ccc(C(F)(F)F)cn3)c3[nH]nc(N)c23)cc1 [Example 24, N-(4-(3-amino-7-(5-(trifluoromethyl)pyridin-2-yl)-1H-pyrazolo[4,3-c]pyridin-4-yl)benzyl)-5-fluoro-2-methoxybenzamide] | ≤ 5 | ≤ 5 | – | – |

The remaining lines, values behind:

| Compound | IC50 ([1]; Homo sapiens, Ramos) [nM] | IC50 [1] [nM] | IC50 [2, 4] [nM] | IC50 [3, 5] [nM] | IC50 [2, 6] [nM] | IC50 [3, 7] [nM] |
| --- | --- | --- | --- | --- | --- | --- |
| COc1ccc(F)cc1C(=O)NCc1ccc(-c2nc(C(C)C(F)(F)F)cc3[nH]nc(N)c23)cc1 (single isomer, unassigned) [Example 2, N-(4-(3-amino-6-(1,1,1-trifluoropropan-2-yl)-1H-pyrazolo[4,3-c]pyridin-4-yl)benzyl)-5-fluoro-2-methoxybenzamide] | 5 to 10 | – | 5 to 10 | 10 to 50 | – | – |
| COc1ccc(F)cc1C(=O)NCc1ccc(-c2nc(C(C)C(F)(F)F)cc3[nH]nc(N)c23)cc1 (single isomer, unassigned) [Example 3, N-(4-(3-amino-6-(1,1,1-trifluoropropan-2-yl)-1H-pyrazolo[4,3-c]pyridin-4-yl)benzyl)-5-fluoro-2-methoxybenzamide] | – | 5 to 10 | – | – | ≤ 5 | 5 to 10 |
| COc1ccc(F)cc1C(=O)NCc1ccc(-c2nc(C(C)C(F)(F)F)c(-c3ccn(C)n3)c3[nH]nc(N)c23)cc1 (single isomer, unassigned) [Example 6-1, N-(4-(3-amino-7-(1-methyl-1H-pyrazol-3-yl)-6-(1,1,1-trifluoropropan-2-yl)-1H-pyrazolo[4,3-c]pyridin-4-yl)benzyl)-5-fluoro-2-methoxybenzamide] | ≤ 5 | – | ≤ 5 | 10 to 50 | – | – |
| COc1ccc(F)cc1C(=O)NCc1ccc(-c2nc(C(C)C(F)(F)F)c(-c3ccn(C)n3)c3[nH]nc(N)c23)cc1 (single isomer, unassigned) [Example 6-2, N-(4-(3-amino-7-(1-methyl-1H-pyrazol-3-yl)-6-(1,1,1-trifluoropropan-2-yl)-1H-pyrazolo[4,3-c]pyridin-4-yl)benzyl)-5-fluoro-2-methoxybenzamide] | – | ≤ 5 | – | – | ≤ 5 | 10 to 50 |
| COc1ccc(F)cc1C(=O)NCc1ccc(-c2nc(C(C)C(F)(F)F)c(-c3ncccn3)c3[nH]nc(N)c23)cc1 (single isomer, unassigned) [Example 7-1, N-(4-(3-amino-7-(pyrimidin-2-yl)-6-(1,1,1-trifluoropropan-2-yl)-1H-pyrazolo[4,3-c]pyridin-4-yl)benzyl)-5-fluoro-2-methoxybenzamide] | ≤ 5 | – | ≤ 5 | 5 to 10 | – | – |
| COc1ccc(F)cc1C(=O)NCc1ccc(-c2nc(C(C)C(F)(F)F)c(-c3ncccn3)c3[nH]nc(N)c23)cc1 (single isomer, unassigned) [Example 7-2, N-(4-(3-amino-7-(pyrimidin-2-yl)-6-(1,1,1-trifluoropropan-2-yl)-1H-pyrazolo[4,3-c]pyridin-4-yl)benzyl)-5-fluoro-2-methoxybenzamide] | – | 5 to 10 | – | – | ≤ 5 | 5 to 10 |
| COc1ccc(F)cc1C(=O)NCc1ccc(-c2nc(C(C)C(F)(F)F)cc3[nH]nc(N)c23)cc1 (centres unmarked) [Example 1, N-(4-(3-amino-6-(1,1,1-trifluoropropan-2-yl)-1H-pyrazolo[4,3-c]pyridin-4-yl)benzyl)-5-fluoro-2-methoxybenzamide] | – | – | 10 to 50 | 10 to 50 | – | – |
| COc1ccc(F)cc1C(=O)NCc1ccc(-c2nc(C(C)C(F)(F)F)c(-c3ccn(C)n3)c3[nH]nc(N)c23)cc1 (centres unmarked) [Example 6, N-(4-(3-amino-7-(1-methyl-1H-pyrazol-3-yl)-6-(1,1,1-trifluoropropan-2-yl)-1H-pyrazolo[4,3-c]pyridin-4-yl)benzyl)-5-fluoro-2-methoxybenzamide] | ≤ 5 | – | ≤ 5 | 5 to 10 | – | – |
| COc1ccc(F)cc1C(=O)NCc1ccc(-c2nc(C(C)C(F)(F)F)c(-c3ncccn3)c3[nH]nc(N)c23)cc1 (centres unmarked) [Example 7, N-(4-(3-amino-7-(pyrimidin-2-yl)-6-(1,1,1-trifluoropropan-2-yl)-1H-pyrazolo[4,3-c]pyridin-4-yl)benzyl)-5-fluoro-2-methoxybenzamide] | 5 to 10 | – | ≤ 5 | 5 to 10 | – | – |
| COc1ccc(F)cc1C(=O)NCc1ccc(-c2nc(C(C)C(F)(F)F)c(-c3cc(C)[nH]n3)c3[nH]nc(N)c23)cc1 (centres unmarked) [Example 9, N-(4-(3-amino-7-(5-methyl-1H-pyrazol-3-yl)-6-(1,1,1-trifluoropropan-2-yl)-1H-pyrazolo[4,3-c]pyridin-4-yl)benzyl)-5-fluoro-2-methoxybenzamide] | 5 to 10 | – | 5 to 10 | 10 to 50 | – | – |
| COc1ccc(F)cc1C(=O)NCc1ccc(-c2ncc(-c3cnn(C)c3)c3[nH]nc(N)c23)cc1 [Example 22, N-(4-(3-amino-7-(1-methyl-1H-pyrazol-4-yl)-1H-pyrazolo[4,3-c]pyridin-4-yl)benzyl)-5-fluoro-2-oxybenzamide] | 10 to 50 | – | > 50 | > 50 | – | – |
